Read-outs that look alike come from different tables or passages of the source.
Tests used:
CFU-GM progenitor cells = details: 80 μg/kg s.c.; for % CHG, CFU-GM, agar culture / mean fold change compared to T 0, CFU-GM, agar culture, MEAN: all five donors
[1] = test system: CFU-GM, BFU-E and CFU-GEMM progenitor cells; details: 80 μg/kg s.c.

Compound: c1cc(CN2CCCNCCNCCCNCC2)ccc1CN1CCCNCCNCCCNCC1 [AMD3100, 1,1′-[1,4-phenylene-bis(methylene)]-bis-1,4,8,11-tetraazacyclotetradecane]
- Absolute # of Progenitors per ML, CFU-GM, AGAR Culture (CFU-GM progenitor cells; P1, T = 1 h after injection): 710 per ML
- fold change from T=0, CFU-GM, agar culture (CFU-GM progenitor cells; P1, T = 1 h after injection): 3.05 fold
- Absolute # of Progenitors per ML, CFU-GM, AGAR Culture (CFU-GM progenitor cells; P1, T = 3 h after injection): 2070 per ML
- fold change from T=0, CFU-GM, agar culture (CFU-GM progenitor cells; P1, T = 3 h after injection): 8.88 fold
- Absolute # of Progenitors per ML, CFU-GM, AGAR Culture (CFU-GM progenitor cells; P1, T = 6 h after injection): 4142 per ML
- fold change from T=0, CFU-GM, agar culture (CFU-GM progenitor cells; P1, T = 6 h after injection): 17.77 fold
- Absolute # of Progenitors per ML, CFU-GM, AGAR Culture (CFU-GM progenitor cells; P2, T = 1 h after injection): 376 per ML
- fold change from T=0, CFU-GM, agar culture (CFU-GM progenitor cells; P2, T = 1 h after injection): 3.74 fold
- Absolute # of Progenitors per ML, CFU-GM, AGAR Culture (CFU-GM progenitor cells; P2, T = 3 h after injection): 953 per ML
- fold change from T=0, CFU-GM, agar culture (CFU-GM progenitor cells; P2, T = 3 h after injection): 9.49 fold
- Absolute # of Progenitors per ML, CFU-GM, AGAR Culture (CFU-GM progenitor cells; P2, T = 6 h after injection): 2409 per ML
- fold change from T=0, CFU-GM, agar culture (CFU-GM progenitor cells; P2, T = 6 h after injection): 24.01 fold
- Absolute # of Progenitors per ML, CFU-GM, AGAR Culture (CFU-GM progenitor cells; P2, T = 9 h after injection): 1032 per ML
- fold change from T=0, CFU-GM, agar culture (CFU-GM progenitor cells; P2, T = 9 h after injection): 10.28 fold
- Absolute # of Progenitors per ML, CFU-GM, AGAR Culture (CFU-GM progenitor cells; P2, T = 24 h after injection): 371 per ML
- fold change from T=0, CFU-GM, agar culture (CFU-GM progenitor cells; P2, T = 24 h after injection): 3.69 fold
- Absolute # of Progenitors per ML, CFU-GM, AGAR Culture (CFU-GM progenitor cells; P3, T = 1 h after injection): 234 per ML
- fold change from T=0, CFU-GM, agar culture (CFU-GM progenitor cells; P3, T = 1 h after injection): 1.67 fold
- Absolute # of Progenitors per ML, CFU-GM, AGAR Culture (CFU-GM progenitor cells; P3, T = 3 h after injection): 1049 per ML
- fold change from T=0, CFU-GM, agar culture (CFU-GM progenitor cells; P3, T = 3 h after injection): 7.47 fold
- Absolute # of Progenitors per ML, CFU-GM, AGAR Culture (CFU-GM progenitor cells; P3, T = 6 h after injection): 1972 per ML
- fold change from T=0, CFU-GM, agar culture (CFU-GM progenitor cells; P3, T = 6 h after injection): 14.04 fold
- Absolute # of Progenitors per ML, CFU-GM, AGAR Culture (CFU-GM progenitor cells; P3, T = 9 h after injection): 1085 per ML
- fold change from T=0, CFU-GM, agar culture (CFU-GM progenitor cells; P3, T = 9 h after injection): 7.72 fold
- Absolute # of Progenitors per ML, CFU-GM, AGAR Culture (CFU-GM progenitor cells; P3, T = 24 h after injection): 159 per ML
- fold change from T=0, CFU-GM, agar culture (CFU-GM progenitor cells; P3, T = 24 h after injection): 1.13 fold
- Absolute # of Progenitors per ML, CFU-GM, AGAR Culture (CFU-GM progenitor cells; P4, T = 1 h after injection): 336 per ML
- fold change from T=0, CFU-GM, agar culture (CFU-GM progenitor cells; P4, T = 1 h after injection): 2.71 fold
- Absolute # of Progenitors per ML, CFU-GM, AGAR Culture (CFU-GM progenitor cells; P4, T = 3 h after injection): 1299 per ML
- fold change from T=0, CFU-GM, agar culture (CFU-GM progenitor cells; P4, T = 3 h after injection): 10.46 fold
- Absolute # of Progenitors per ML, CFU-GM, AGAR Culture (CFU-GM progenitor cells; P4, T = 6 h after injection): 1623 per ML
- fold change from T=0, CFU-GM, agar culture (CFU-GM progenitor cells; P4, T = 6 h after injection): 13.07 fold
- Absolute # of Progenitors per ML, CFU-GM, AGAR Culture (CFU-GM progenitor cells; P4, T = 9 h after injection): 1268 per ML
- fold change from T=0, CFU-GM, agar culture (CFU-GM progenitor cells; P4, T = 9 h after injection): 10.22 fold
- Absolute # of Progenitors per ML, CFU-GM, AGAR Culture (CFU-GM progenitor cells; P4, T = 24 h after injection): 162 per ML
- fold change from T=0, CFU-GM, agar culture (CFU-GM progenitor cells; P4, T = 24 h after injection): 1.30 fold
- Absolute # of Progenitors per ML, CFU-GM, AGAR Culture (CFU-GM progenitor cells; P5, T = 1 h after injection): 298 per ML
- Absolute # of Progenitors per ML, CFU-GM, AGAR Culture (CFU-GM progenitor cells; P5, T = 3 h after injection): 664 per ML
- Absolute # of Progenitors per ML, CFU-GM, AGAR Culture (CFU-GM progenitor cells; P5, T = 6 h after injection): 2153 per ML
- Absolute # of Progenitors per ML, CFU-GM, AGAR Culture (CFU-GM progenitor cells; P5, T = 9 h after injection): 1326 per ML
- Absolute # of Progenitors per ML, CFU-GM, AGAR Culture (CFU-GM progenitor cells; P5, T = 24 h after injection): 229 per ML
- fold change from T=0, CFU-GM, agar culture (CFU-GM progenitor cells; P6, T = 1 h after injection): 2.87 fold
- fold change from T=0, CFU-GM, agar culture (CFU-GM progenitor cells; P6, T = 3 h after injection): 6.40 fold
- fold change from T=0, CFU-GM, agar culture (CFU-GM progenitor cells; P6, T = 6 h after injection): 20.75 fold
- fold change from T=0, CFU-GM, agar culture (CFU-GM progenitor cells; P6, T = 9 h after injection): 12.78 fold
- fold change from T=0, CFU-GM, agar culture (CFU-GM progenitor cells; P6, T = 24 h after injection): 2.20 fold
- % CHG, CFU-GM, agar culture (CFU-GM progenitor cells; T = 1 h after injection): 180.8%
- mean fold change compared to T 0, CFU-GM, agar culture, MEAN (CFU-GM progenitor cells; T = 1 h after injection): 2.81 fold
- % CHG, CFU-GM, agar culture (CFU-GM progenitor cells; T = 3 h after injection): 754.1%
- mean fold change compared to T 0, CFU-GM, agar culture, MEAN (CFU-GM progenitor cells; T = 3 h after injection): 8.54 fold
- % CHG, CFU-GM, agar culture (CFU-GM progenitor cells; T = 6 h after injection): 1692.8%
- mean fold change compared to T 0, CFU-GM, agar culture, MEAN (CFU-GM progenitor cells; T = 6 h after injection): 17.93 fold
- % CHG, CFU-GM, agar culture (CFU-GM progenitor cells; T = 9 h after injection): 924.9%
- mean fold change compared to T 0, CFU-GM, agar culture, MEAN (CFU-GM progenitor cells; T = 9 h after injection): 10.25 fold
- % CHG, CFU-GM, agar culture (CFU-GM progenitor cells; T = 24 h after injection): 108.3%
- mean fold change compared to T 0, CFU-GM, agar culture, MEAN (CFU-GM progenitor cells; T = 24 h after injection): 2.08 fold
- Cycling Status of Progenitors, BFU-E ([1]; P1, T = 1 h after injection): 0%
- Cycling Status of Progenitors, CFU-GEMM ([1]; P1, T = 1 h after injection): 0%
- Cycling Status of Progenitors, CFU-GM ([1]; P1, T = 1 h after injection): 1%
- Cycling Status of Progenitors, CFU-GM, AGAR Culture ([1]; P1, T = 1 h after injection): 0%
- Cycling Status of Progenitors, BFU-E ([1]; P1, T = 3 h after injection): 13%
- Cycling Status of Progenitors, CFU-GEMM ([1]; P1, T = 3 h after injection): 7%
- Cycling Status of Progenitors, CFU-GM ([1]; P1, T = 3 h after injection): 1%
- Cycling Status of Progenitors, CFU-GM, AGAR Culture ([1]; P1, T = 3 h after injection): 0%
- Cycling Status of Progenitors, BFU-E ([1]; P1, T = 6 h after injection): 0%
- Cycling Status of Progenitors, CFU-GEMM ([1]; P1, T = 6 h after injection): 0%
- Cycling Status of Progenitors, CFU-GM ([1]; P1, T = 6 h after injection): 0%
- Cycling Status of Progenitors, CFU-GM, AGAR Culture ([1]; P1, T = 6 h after injection): 0%
- Cycling Status of Progenitors, BFU-E ([1]; P1, T = 9 h after injection): 11%
- Cycling Status of Progenitors, CFU-GEMM ([1]; P1, T = 9 h after injection): 0%
- Cycling Status of Progenitors, CFU-GM ([1]; P1, T = 9 h after injection): 2%
- Cycling Status of Progenitors, BFU-E ([1]; P1, T = 24 h after injection): 0%
- Cycling Status of Progenitors, CFU-GEMM ([1]; P1, T = 24 h after injection): 0%
- Cycling Status of Progenitors, CFU-GM ([1]; P1, T = 24 h after injection): 0%
- Cycling Status of Progenitors, BFU-E ([1]; P2, T = 1 h after injection): 3%
- Cycling Status of Progenitors, CFU-GEMM ([1]; P2, T = 1 h after injection): 6%
- Cycling Status of Progenitors, CFU-GM ([1]; P2, T = 1 h after injection): 0%
